The values below are quoted from earlier work in PMC3694611 (Journal of natural products, 2012).

Data set [1] relates to Plasmodium falciparum. The settings on record: in words; ref [1a].
For data set [2] the following is noted: in words; ref [ii].

In the case of Gallinamide A, in data set [1], the “activity against the malarial parasite Plasmodium falciparum” value was “moderately active”.

On to dolastatin-15, for which the anticancer potency entry in data set [2] is listed as “exceedingly potent”.
